For the test, the target named is T1, full length AKT1 (Homo sapiens, UniProt P31749).
T1 construct: Full-length human AKT1 gene was amplified by PCR; His tag (from vector pFastBacHTb; N-terminal position is own knowledge of the vector) (N); made in house; host or cells: baculovirus; Sf9 / T. ni insect cells
The test can be described thus: Full-length AKT enzyme assay (substrate phosphorylation, SPA). The format is biochemical. The note with it: in at least one experimental run; pIC50 = -log(IC50), IC50 in molar units; 4 uM ATP, 10 nM activated AKT enzyme; read-out: pIC50 against full length AKT1 (converted). The text has this:
Cloning of Full-Length Human (FL) AKT1:
Full-length human AKT1 gene was amplified by PCR from a plasmid containing myristylated-AKT1-ER (gift from Robert T. Abraham, Duke University under MTA, described in Klippel et al. in Molecular and Cellular Biology 1998 Volume 18 p. 5699) using the 5′ primer: SEQ. ID NO: 2
5′ […] 3′ and the 3′ primer: SEQ. ID NO: 3 […] 3′. The 5′ primer included a BamHl site and the 3′primer included an Xhol site for cloning purposes. The resultant PCR product was subcloned in pcDNA3 as a BamHl/Xhol fragment. A mutation in the sequence (TGC) coding for a Cysteine^25 was converted to the wild-type AKT1 sequence (CGC) coding for an Arginine^25 by site-directed mutagenesis using the QuikChange® Site Directed Mutagenesis Kit (Stratagene). The AKT1 mutagenic primer: SEQ. ID NO: 4 5′ […] and selection primer: SEQ. […] For expression/purification purposes, AKT1 was isolated as a BamHl/Xhol fragment and cloned into the BamHl/Xhol sites of pFastbacHTb (Invitrogen).
Expression was done using the BAC-to-BAC Baculovirus Expression System from Invitrogen (catalog #10359-016). […]
Compounds of the present invention were tested for AKT 1, 2, and 3 protein serine kinase inhibitory activity in substrate phosphorylation assays. […] Substrate phosphorylation was detected by the following procedure. […]

T1 sequence (P31749 whole entry): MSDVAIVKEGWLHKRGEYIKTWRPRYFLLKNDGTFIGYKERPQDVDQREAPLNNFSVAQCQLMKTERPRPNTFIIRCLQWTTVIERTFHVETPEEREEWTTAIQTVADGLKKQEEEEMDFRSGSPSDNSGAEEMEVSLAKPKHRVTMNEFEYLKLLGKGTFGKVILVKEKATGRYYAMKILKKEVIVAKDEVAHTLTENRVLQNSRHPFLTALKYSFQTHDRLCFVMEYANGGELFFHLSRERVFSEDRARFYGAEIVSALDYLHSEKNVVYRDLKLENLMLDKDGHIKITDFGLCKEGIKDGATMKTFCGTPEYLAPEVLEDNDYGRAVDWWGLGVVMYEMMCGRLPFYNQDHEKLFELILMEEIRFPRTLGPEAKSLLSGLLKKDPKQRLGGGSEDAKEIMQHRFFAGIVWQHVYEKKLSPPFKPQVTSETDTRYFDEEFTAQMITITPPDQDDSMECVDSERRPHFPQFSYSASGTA

With `Cn1nccc1-n1cc(C(=O)N[C@H](CN)Cc2cccc(F)c2)cc1Cl` [Example 2, N-{(1S)-2-amino-1-[(3-fluorophenyl)methyl]ethyl}-5-chloro-1-(1-methyl-1H-pyrazol-5-yl)-1H-pyrrole-3-carboxamide], the IC50 was 6.31 nM.
